Measured values as given in US6201122A, “Fluoroaliphatic radical-containing anionic sulfonamido compounds” (3M Innovative Properties Company, priority 1992, dated 2001).

Columns and labels:
Assay type in all cases: physicochemical
[1] = surface tension of aqueous solutions (du Nouy tensiometer); settings: diluted from 10% solids in water/isopropyl alcohol; for Surface tension (dynes/cm) at 100 ppm: 100 ppm (0.01% solids) in deionized water; for Surface tension (dynes/cm) at 500 ppm: 500 ppm (0.05% solids) in deionized water
Procedure: (§1) In the following Examples and Comparative Examples, fluoroaliphatic radical-containing compounds were prepared. The surface tension of water and isopropyl alcohol solutions containing these compounds was measured using a du Nouy tensiometer. The foaming properties of these solutions were also evaluated by generating foam and measuring the foam volume and half life.
The fluorochemical solutions obtained in Examples 1 to 6 and Comparative Examples C1 to C12 were diluted to 10% solids by dilution with a solution of 70% by volume water and 30% by volume isopropyl alcohol. Further dilutions to 0.01% solids (100 ppm), and 0.05% solids (500 ppm), were done with deionized water.

[2] = foam half-life (seconds needed to drain 100 mL of solution from the foam); settings: for Foam Half-Life: 200 mL of 500 ppm solution, seconds to drain 100 mL of solution from the foam; for foam half-life relative to anionic Comparative Examples C4 to C7 (in words): 500 ppm, versus anionic Comparative Examples C4 to C7
Procedure: as §1
(§2) Foam was generated from 200 mL of the 500 ppm solutions used for measuring surface tension. The surfactant solutions were mixed with a Hobart mixer for 3 minutes at medium speed. Foam volume (cubic centimeters of foam) was measured in a graduated cylinder. Foam half-life was measured as the seconds needed to drain 100 mL of solution from the foam.

[3] = foam volume of surfactant solutions (Hobart mixer, graduated cylinder); settings: for Foam Volume: 200 mL of 500 ppm solution, Hobart mixer 3 minutes at medium speed; for foam volume relative to anionic Comparative Examples C4 to C7 (in words): 500 ppm, versus anionic Comparative Examples C4 to C7
Procedure: as §1, §2

Row | Compound | Surface tension (dynes/cm) at 100 ppm [1] | Surface tension (dynes/cm) at 500 ppm [1] | Foam Half-Life [2] | Foam Volume [3] | foam half-life relative to anionic Comparative Examples C4 to C7 (in words) [2] | foam volume relative to anionic Comparative Examples C4 to C7 (in words) [3]
1 | CCN(CCC(=O)NCCC[N+](C)(C)CCCS(=O)(=O)[O-])S(=O)(=O)C(F)(F)C(F)(F)C(F)(F)C(F)(F)C(F)(F)C(F)(F)C(F)(F)C(F)(F)F [Comparative Example C9] | 20.0 dynes/cm | 18.3 dynes/cm | 0.583 min | 900 cm^3 |  | 
2 | CC(C)(CS(=O)(=O)O)NC(=O)CCNCCNS(=O)(=O)C(F)(F)C(F)(F)C(F)(F)C(F)(F)C(F)(F)C(F)(F)C(F)(F)C(F)(F)F [Example 1] | 18.3 dynes/cm | 17.1 dynes/cm | less than 30 sec. | 300 cm^3 | significantly shorter foam half-life | much lower foam volume
3 | O=C(O)CCNCCNS(=O)(=O)C(F)(F)C(F)(F)C(F)(F)C(F)(F)C(F)(F)C(F)(F)C(F)(F)C(F)(F)F [Example 2] | 16.8 dynes/cm | 16.5 dynes/cm | less than 30 sec. | 300 cm^3 | significantly shorter foam half-life | much lower foam volume
4 | CCN(CC(=O)O)S(=O)(=O)C(F)(F)C(F)(F)C(F)(F)C(F)(F)C(F)(F)C(F)(F)C(F)(F)C(F)(F)F [Comparative Example C4] | 19.7 dynes/cm | 16.4 dynes/cm | 6.25 min | 2600 cm^3 |  | 
5 | CCN(CCC(=O)O)S(=O)(=O)C(F)(F)C(F)(F)C(F)(F)C(F)(F)C(F)(F)C(F)(F)C(F)(F)C(F)(F)F [Comparative Example C6] | 19.9 dynes/cm | 17.5 dynes/cm | 4.08 min | 1900 cm^3 |  | 
6 | C[N+](C)(CCCNS(=O)(=O)C(F)(F)C(F)(F)C(F)(F)C(F)(F)C(F)(F)C(F)(F)F)CC(=O)[O-] [Comparative Example C12] | 21.0 dynes/cm | 19.4 dynes/cm | 5.33 min | 2400 cm^3 |  | 
7 | CC(C)(CS(=O)(=O)O)NC(=O)CCNCCC[Si](C)(C)O[Si](C)(C)CCCNS(=O)(=O)C(F)(F)C(F)(F)C(F)(F)C(F)(F)F [Example 4] |  | 20.1 dynes/cm |  |  |  | 
8 | CCN(CCC(=O)O)S(=O)(=O)C(F)(F)C(F)(F)C(F)(F)C(F)(F)C(F)(F)C(F)(F)C(F)(F)C(F)(F)F [Comparative Example C7] | 19.1 dynes/cm | 17.2 dynes/cm | 5 min | 2200 cm^3 |  | 
9 | CCN(CCC(=O)O)S(=O)(=O)C(F)(F)C(F)(F)C(F)(F)C(F)(F)C(F)(F)C(F)(F)C(F)(F)C(F)(F)F [Comparative Example C5] | 24.3 dynes/cm | 20.7 dynes/cm | 1.38 min | 1500 cm^3 |  | 
10 | CCN(CCSC(CC(=O)O)C(=O)O)S(=O)(=O)C(F)(F)C(F)(F)C(F)(F)C(F)(F)C(F)(F)C(F)(F)C(F)(F)C(F)(F)F (stereo not drawn) [Example 6] |  | 19.3 dynes/cm |  |  |  | 
11 | CC[N+](C)(CC)CCNS(=O)(=O)C(F)(F)C(F)(F)C(F)(F)C(F)(F)C(F)(F)C(F)(F)C(F)(F)C(F)(F)F [Comparative Example C11] | 18.1 dynes/cm | 17.5 dynes/cm | 5.33 min | 2600 cm^3 |  | 
12 | CCN(CCC(=O)NCCC[N+](C)(C)CC)S(=O)(=O)C(F)(F)C(F)(F)C(F)(F)C(F)(F)C(F)(F)C(F)(F)C(F)(F)C(F)(F)F [Comparative Example C8] | 20.5 dynes/cm | 18.5 dynes/cm | less than 30 sec. | 600 cm^3 |  | 
13 | CC(C)(CS(=O)(=O)O)NC(=O)CCN1CCN(S(=O)(=O)C(F)(F)C(F)(F)C(F)(F)C(F)(F)C(F)(F)C(F)(F)C(F)(F)C(F)(F)F)CC1 [Example 3] | 20.3 dynes/cm | 18.5 dynes/cm |  |  |  | 
